Measurements from patent US6893627B2, “Method for treating type 2 diabetes with an extract of Artemisia” (Rutgers, The State University of New Jersey, priority 2001, dated 2005).

Test system: Streptozotocin (STZ)-treated mice
Assay: Blood glucose lowering in Streptozotocin (STZ)-treated mice
Type: in vivo
Details: insulin 1 IU/kg subcutaneously
Description: The efficacy of the Artemisia dracunculus extract was evaluated in Streptozotocin (STZ)-treated mice. STZ induces diabetes by destroying most, if not all, of the beta cells of the pancreas, leaving the animals with little or no insulin production and severe hyperglycemia [Hisashi, et al., European Journal of Pharmacology, 87:237-243 (1983)]. […] Mice were treated with STZ as described by Hisashi et al., European Journal of Pharmacology, 87:237-243 (1983). A 500 mg/kg dose of Artemisia dracunculus extract was administered daily by oral gavage to STZ-treated mice for a period of 7 days. Additionally, a dose of insulin (1 IU/kg) was administered. subcutaneously to STZ-treated mice, while 20 ml/kg of vehicle only (0.9% NaCl or 2% Tween 80 in distilled water) was administered to STZ-treated mice, as a control. […] Regardless of mechanism, however, the results establish that plant extracts, such as the mildly polar ethanolic extract of A. dracunculus, can be orally administered in a dose effective in lowering blood glucose levels.

Substance: insulin
- reduction in blood glucose concentrations: 42%
